{
  "source": "ChEMBL document CHEMBL5346910",
  "about": "“N-sulfonyl peptide-hybrids as a new class of dengue virus protease inhibitors” (Eur J Med Chem, 2023)",
  "data": [
    {"molecular_target": "T1, Trypsin (Homo sapiens, UniProt P07477+P07478+P35030)", "assay": "Inhibition of trypsin (unknown origin) at 50 uM by biochemical assay relative to control", "type": "protein assay", "conditions": "not given", "units": {"inhibition": "%"}, "values": [
      {"smiles": "CN([C@@H](Cc1cccc(NC(=N)N)c1)C(=O)N[C@@H](CCCCN)C(=O)N[C@@H](C(N)=O)c1ccccc1)S(=O)(=O)c1ccccc1", "inhibition": "< 10"},
      {"smiles": "CC[C@H](NC(=O)[C@H](Cc1cccc(NC(=N)N)c1)N(C)S(=O)(=O)c1ccc(C)cc1)C(=O)N[C@@H](C(N)=O)c1ccccc1", "inhibition": "< 10"},
      {"smiles": "N=C(N)NCCC[C@H](NS(=O)(=O)c1ccc([N+](=O)[O-])cc1)C(=O)N[C@@H](CCCCN)C(=O)N[C@@H](C(N)=O)c1ccccc1", "inhibition": 30.6},
      {"smiles": "N=C(N)NCCC[C@H](NS(=O)(=O)C1CCCCC1)C(=O)N[C@@H](CCCCN)C(=O)N[C@@H](C(N)=O)c1ccccc1", "inhibition": 17.4},
      {"smiles": "CN([C@@H](CCCNC(=N)N)C(=O)N[C@@H](CCCCN)C(=O)N[C@H](C(N)=O)c1ccccc1)S(=O)(=O)c1ccccc1", "inhibition": "< 10"},
      {"smiles": "CC(C)c1cc(C(C)C)c(S(=O)(=O)N[C@@H](CCCNC(=N)N)C(=O)N[C@@H](CCCCN)C(=O)N[C@@H](C(N)=O)c2ccccc2)c(C(C)C)c1", "inhibition": "< 10"},
      {"smiles": "N=C(N)Nc1ccc(C[C@H](NS(=O)(=O)c2ccccc2)C(=O)N[C@@H](CCCCN)C(=O)N[C@@H](C(N)=O)c2ccccc2)cc1", "inhibition": "< 10"}
    ]},
    {"molecular_target": "T1, Trypsin", "assay": "Stability of the compound assessed as trypsin (unknown origin) mediated compound degradation incubated for 60 mins by UV-based HPLC analysis", "type": "ADME, protein assay", "conditions": "1 h", "values": [
      {"smiles": "N=C(N)Nc1ccc(C[C@H](NS(=O)(=O)c2ccccc2)C(=O)N[C@@H](CCCCN)C(=O)N[C@@H](C(N)=O)c2ccccc2)cc1", "Stability": "Stable"}
    ]},
    {"tested_on": "not listed separately", "assay": "Stability of the compound assessed as alpha-chymotrypsin (unknown origin) mediated compound degradation incubated for 60 mins by UV-based HPLC analysis", "type": "ADME", "conditions": "human, 1 h", "values": [
      {"smiles": "N=C(N)Nc1ccc(C[C@H](NS(=O)(=O)c2ccccc2)C(=O)N[C@@H](CCCCN)C(=O)N[C@@H](C(N)=O)c2ccccc2)cc1", "Stability": "Stable"}
    ]},
    {"tested_on": "not listed separately", "assay": "Cytotoxicity against human HeLa cells by CellTiter-Blue assay", "type": "toxicity, cell-based", "conditions": "not given", "units": {"CC50": "µM"}, "values": [
      {"smiles": "N=C(N)NCCC[C@H](NS(=O)(=O)c1ccc([N+](=O)[O-])cc1)C(=O)N[C@@H](CCCCN)C(=O)N[C@@H](C(N)=O)c1ccccc1", "CC50": "> 50"},
      {"smiles": "N=C(N)NCCC[C@H](NS(=O)(=O)C1CCCCC1)C(=O)N[C@@H](CCCCN)C(=O)N[C@@H](C(N)=O)c1ccccc1", "CC50": "> 50"},
      {"smiles": "CN([C@@H](CCCNC(=N)N)C(=O)N[C@@H](CCCCN)C(=O)N[C@H](C(N)=O)c1ccccc1)S(=O)(=O)c1ccccc1", "CC50": "> 50"},
      {"smiles": "CC(C)c1cc(C(C)C)c(S(=O)(=O)N[C@@H](CCCNC(=N)N)C(=O)N[C@@H](CCCCN)C(=O)N[C@@H](C(N)=O)c2ccccc2)c(C(C)C)c1", "CC50": "> 50"},
      {"smiles": "N=C(N)Nc1ccc(C[C@H](NS(=O)(=O)c2ccccc2)C(=O)N[C@@H](CCCCN)C(=O)N[C@@H](C(N)=O)c2ccccc2)cc1", "CC50": "> 50"}
    ]},
    {"tested_on": "not listed separately", "assay": "Metabolic stability in rat liver microsomes measured for 120 mins by UV-based HPLC analysis", "type": "ADME, Microsome", "conditions": "2 h", "values": [
      {"smiles": "N=C(N)Nc1ccc(C[C@H](NS(=O)(=O)c2ccccc2)C(=O)N[C@@H](CCCCN)C(=O)N[C@@H](C(N)=O)c2ccccc2)cc1", "Stability": "Stable"}
    ]},
    {"molecular_target": "Genome polyprotein (dengue virus type 2, UniProt P29990)", "assay": "Inhibition of DENV-2 NS2B-NS3 protease by biochemical enzymatic assay", "conditions": "not given", "units": {"IC50": "µM"}, "values": [
      {"smiles": "CN([C@@H](Cc1cccc(NC(=N)N)c1)C(=O)N[C@@H](CCCCN)C(=O)N[C@@H](C(N)=O)c1ccccc1)S(=O)(=O)c1ccccc1", "IC50": 13.2},
      {"smiles": "CC[C@H](NC(=O)[C@H](Cc1cccc(NC(=N)N)c1)N(C)S(=O)(=O)c1ccc(C)cc1)C(=O)N[C@@H](C(N)=O)c1ccccc1", "IC50": 18.9},
      {"smiles": "CN([C@@H](CCCNC(=N)N)C(=O)N[C@@H](CCCCN)C(=O)N[C@H](C(N)=O)c1ccccc1)S(=O)(=O)c1ccccc1", "IC50": 17.6}
    ]},
    {"molecular_target": "Genome polyprotein (dengue virus type 2) (UniProt P29990)", "assay": "Inhibition of DENV-2 NS2B-NS3 protease at 50 uM by biochemical enzymatic assay relative to control", "conditions": "not given", "units": {"inhibition": "%"}, "values": [
      {"smiles": "CN([C@@H](Cc1cccc(NC(=N)N)c1)C(=O)N[C@@H](CCCCN)C(=O)N[C@@H](C(N)=O)c1ccccc1)S(=O)(=O)c1ccccc1", "inhibition": 78.6},
      {"smiles": "CC[C@H](NC(=O)[C@H](Cc1cccc(NC(=N)N)c1)N(C)S(=O)(=O)c1ccc(C)cc1)C(=O)N[C@@H](C(N)=O)c1ccccc1", "inhibition": 74.3},
      {"smiles": "N=C(N)NCCC[C@H](NS(=O)(=O)c1ccc([N+](=O)[O-])cc1)C(=O)N[C@@H](CCCCN)C(=O)N[C@@H](C(N)=O)c1ccccc1", "inhibition": 24.7},
      {"smiles": "N=C(N)NCCC[C@H](NS(=O)(=O)C1CCCCC1)C(=O)N[C@@H](CCCCN)C(=O)N[C@@H](C(N)=O)c1ccccc1", "inhibition": 65.2},
      {"smiles": "CN([C@@H](CCCNC(=N)N)C(=O)N[C@@H](CCCCN)C(=O)N[C@H](C(N)=O)c1ccccc1)S(=O)(=O)c1ccccc1", "inhibition": 75.3},
      {"smiles": "CC(C)c1cc(C(C)C)c(S(=O)(=O)N[C@@H](CCCNC(=N)N)C(=O)N[C@@H](CCCCN)C(=O)N[C@@H](C(N)=O)c2ccccc2)c(C(C)C)c1", "inhibition": 20.2},
      {"smiles": "N=C(N)Nc1ccc(C[C@H](NS(=O)(=O)c2ccccc2)C(=O)N[C@@H](CCCCN)C(=O)N[C@@H](C(N)=O)c2ccccc2)cc1", "inhibition": 52.6}
    ]},
    {"molecular_target": "Genome polyprotein (West Nile virus) (UniProt P06935)", "sequence (P06935 whole entry)": "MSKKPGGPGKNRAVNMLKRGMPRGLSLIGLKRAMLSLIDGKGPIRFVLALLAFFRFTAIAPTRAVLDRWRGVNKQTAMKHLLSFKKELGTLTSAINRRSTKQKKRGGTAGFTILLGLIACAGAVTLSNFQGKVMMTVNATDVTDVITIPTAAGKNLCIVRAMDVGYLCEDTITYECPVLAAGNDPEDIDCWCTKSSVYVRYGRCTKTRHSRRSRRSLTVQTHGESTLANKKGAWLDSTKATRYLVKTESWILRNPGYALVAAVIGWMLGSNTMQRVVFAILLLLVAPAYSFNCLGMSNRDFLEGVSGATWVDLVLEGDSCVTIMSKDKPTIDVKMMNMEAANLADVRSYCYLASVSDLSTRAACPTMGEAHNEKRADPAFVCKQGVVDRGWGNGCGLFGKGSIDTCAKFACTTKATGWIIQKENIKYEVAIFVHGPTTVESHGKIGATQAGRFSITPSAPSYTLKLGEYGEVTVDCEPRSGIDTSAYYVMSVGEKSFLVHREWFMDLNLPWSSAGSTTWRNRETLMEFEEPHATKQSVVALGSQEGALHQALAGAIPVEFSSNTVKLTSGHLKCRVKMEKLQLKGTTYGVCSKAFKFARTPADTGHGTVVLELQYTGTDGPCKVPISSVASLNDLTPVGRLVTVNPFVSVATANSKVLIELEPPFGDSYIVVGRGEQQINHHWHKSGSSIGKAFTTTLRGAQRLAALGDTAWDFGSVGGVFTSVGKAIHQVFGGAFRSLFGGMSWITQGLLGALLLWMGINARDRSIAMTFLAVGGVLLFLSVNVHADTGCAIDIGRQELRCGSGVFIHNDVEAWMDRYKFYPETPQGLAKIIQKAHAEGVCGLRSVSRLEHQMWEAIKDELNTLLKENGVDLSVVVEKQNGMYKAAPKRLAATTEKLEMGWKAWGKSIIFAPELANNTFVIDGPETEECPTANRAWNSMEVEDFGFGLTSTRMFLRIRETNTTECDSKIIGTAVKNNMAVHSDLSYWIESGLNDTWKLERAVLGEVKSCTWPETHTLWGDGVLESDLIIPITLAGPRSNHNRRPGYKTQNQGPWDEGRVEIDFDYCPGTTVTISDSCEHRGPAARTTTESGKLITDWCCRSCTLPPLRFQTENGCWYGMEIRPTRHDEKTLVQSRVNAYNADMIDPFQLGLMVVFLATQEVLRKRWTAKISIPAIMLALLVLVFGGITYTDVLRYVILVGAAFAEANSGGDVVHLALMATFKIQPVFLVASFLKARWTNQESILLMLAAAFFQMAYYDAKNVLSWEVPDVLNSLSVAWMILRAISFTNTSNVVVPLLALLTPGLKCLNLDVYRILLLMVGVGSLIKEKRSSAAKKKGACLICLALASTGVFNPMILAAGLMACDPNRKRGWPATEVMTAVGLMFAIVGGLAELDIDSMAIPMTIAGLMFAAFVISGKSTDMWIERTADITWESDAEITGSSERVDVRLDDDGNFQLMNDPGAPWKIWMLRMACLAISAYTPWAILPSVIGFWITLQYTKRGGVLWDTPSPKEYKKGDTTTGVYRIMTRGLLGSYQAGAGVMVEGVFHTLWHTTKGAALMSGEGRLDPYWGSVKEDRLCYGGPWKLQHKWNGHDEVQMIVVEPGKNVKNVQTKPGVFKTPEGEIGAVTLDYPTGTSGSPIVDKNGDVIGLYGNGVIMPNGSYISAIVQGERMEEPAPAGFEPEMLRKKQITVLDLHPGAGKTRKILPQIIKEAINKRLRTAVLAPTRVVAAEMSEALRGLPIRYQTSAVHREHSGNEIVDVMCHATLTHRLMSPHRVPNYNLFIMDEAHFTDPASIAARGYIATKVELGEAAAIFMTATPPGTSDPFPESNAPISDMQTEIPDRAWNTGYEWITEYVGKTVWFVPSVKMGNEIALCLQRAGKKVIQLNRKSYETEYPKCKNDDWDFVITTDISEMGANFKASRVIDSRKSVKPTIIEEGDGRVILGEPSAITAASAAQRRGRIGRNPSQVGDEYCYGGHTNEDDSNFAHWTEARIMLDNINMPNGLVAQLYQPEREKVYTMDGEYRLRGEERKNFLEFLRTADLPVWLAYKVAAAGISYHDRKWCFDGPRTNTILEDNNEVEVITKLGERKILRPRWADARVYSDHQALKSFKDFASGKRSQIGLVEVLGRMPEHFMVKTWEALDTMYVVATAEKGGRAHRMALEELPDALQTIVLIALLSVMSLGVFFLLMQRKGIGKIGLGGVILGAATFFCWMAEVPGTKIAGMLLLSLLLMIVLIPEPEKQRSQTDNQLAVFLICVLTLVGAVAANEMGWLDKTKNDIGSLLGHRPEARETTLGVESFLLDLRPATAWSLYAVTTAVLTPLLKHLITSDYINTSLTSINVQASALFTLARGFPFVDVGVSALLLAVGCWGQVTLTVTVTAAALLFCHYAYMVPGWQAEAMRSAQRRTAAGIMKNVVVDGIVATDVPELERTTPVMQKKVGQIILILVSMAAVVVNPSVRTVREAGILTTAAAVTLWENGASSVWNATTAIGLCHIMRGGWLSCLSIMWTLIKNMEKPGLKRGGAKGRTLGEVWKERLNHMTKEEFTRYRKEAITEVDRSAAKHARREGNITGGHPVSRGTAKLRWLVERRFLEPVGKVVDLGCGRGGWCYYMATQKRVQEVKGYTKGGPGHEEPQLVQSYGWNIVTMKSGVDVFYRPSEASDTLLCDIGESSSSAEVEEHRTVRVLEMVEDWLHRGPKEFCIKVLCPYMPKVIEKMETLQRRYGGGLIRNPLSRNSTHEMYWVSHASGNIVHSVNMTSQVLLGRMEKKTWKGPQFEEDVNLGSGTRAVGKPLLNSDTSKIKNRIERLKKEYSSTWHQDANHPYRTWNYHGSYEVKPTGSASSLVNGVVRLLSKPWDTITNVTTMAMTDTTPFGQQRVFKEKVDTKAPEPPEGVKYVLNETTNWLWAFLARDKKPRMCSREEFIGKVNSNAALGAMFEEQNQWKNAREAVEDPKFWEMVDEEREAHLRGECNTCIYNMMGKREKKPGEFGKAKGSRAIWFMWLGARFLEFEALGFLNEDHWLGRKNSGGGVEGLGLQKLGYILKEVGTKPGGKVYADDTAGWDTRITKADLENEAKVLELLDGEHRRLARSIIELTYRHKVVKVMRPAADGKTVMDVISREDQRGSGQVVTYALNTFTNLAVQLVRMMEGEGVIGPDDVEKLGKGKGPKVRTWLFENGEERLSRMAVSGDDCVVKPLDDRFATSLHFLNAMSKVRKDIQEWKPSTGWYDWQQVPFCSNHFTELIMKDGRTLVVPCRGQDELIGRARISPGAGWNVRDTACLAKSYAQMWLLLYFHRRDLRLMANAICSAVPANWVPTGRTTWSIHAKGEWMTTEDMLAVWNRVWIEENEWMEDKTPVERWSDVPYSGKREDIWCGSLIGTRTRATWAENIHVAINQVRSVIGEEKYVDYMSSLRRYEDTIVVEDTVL", "assay": "Inhibition of West Nile virus NS2B-NS3 protease at 50 uM by biochemical enzymatic assay relative to control", "conditions": "not given", "units": {"inhibition": "%"}, "values": [
      {"smiles": "CN([C@@H](Cc1cccc(NC(=N)N)c1)C(=O)N[C@@H](CCCCN)C(=O)N[C@@H](C(N)=O)c1ccccc1)S(=O)(=O)c1ccccc1", "inhibition": 10.1},
      {"smiles": "CC[C@H](NC(=O)[C@H](Cc1cccc(NC(=N)N)c1)N(C)S(=O)(=O)c1ccc(C)cc1)C(=O)N[C@@H](C(N)=O)c1ccccc1", "inhibition": "< 10"},
      {"smiles": "N=C(N)NCCC[C@H](NS(=O)(=O)c1ccc([N+](=O)[O-])cc1)C(=O)N[C@@H](CCCCN)C(=O)N[C@@H](C(N)=O)c1ccccc1", "inhibition": 18.4},
      {"smiles": "N=C(N)NCCC[C@H](NS(=O)(=O)C1CCCCC1)C(=O)N[C@@H](CCCCN)C(=O)N[C@@H](C(N)=O)c1ccccc1", "inhibition": "< 10"},
      {"smiles": "CN([C@@H](CCCNC(=N)N)C(=O)N[C@@H](CCCCN)C(=O)N[C@H](C(N)=O)c1ccccc1)S(=O)(=O)c1ccccc1", "inhibition": "< 10"},
      {"smiles": "CC(C)c1cc(C(C)C)c(S(=O)(=O)N[C@@H](CCCNC(=N)N)C(=O)N[C@@H](CCCCN)C(=O)N[C@@H](C(N)=O)c2ccccc2)c(C(C)C)c1", "inhibition": "< 10"},
      {"smiles": "N=C(N)Nc1ccc(C[C@H](NS(=O)(=O)c2ccccc2)C(=O)N[C@@H](CCCCN)C(=O)N[C@@H](C(N)=O)c2ccccc2)cc1", "inhibition": "< 10"}
    ]},
    {"molecular_target": "Prothrombin (Homo sapiens) (UniProt P00734)", "assay": "Inhibition of Thrombin (unknown origin) at 25 uM by biochemical assay relative to control", "conditions": "not given", "units": {"inhibition": "%"}, "values": [
      {"smiles": "CN([C@@H](Cc1cccc(NC(=N)N)c1)C(=O)N[C@@H](CCCCN)C(=O)N[C@@H](C(N)=O)c1ccccc1)S(=O)(=O)c1ccccc1", "inhibition": 30.2},
      {"smiles": "CC[C@H](NC(=O)[C@H](Cc1cccc(NC(=N)N)c1)N(C)S(=O)(=O)c1ccc(C)cc1)C(=O)N[C@@H](C(N)=O)c1ccccc1", "inhibition": 18.1},
      {"smiles": "N=C(N)NCCC[C@H](NS(=O)(=O)c1ccc([N+](=O)[O-])cc1)C(=O)N[C@@H](CCCCN)C(=O)N[C@@H](C(N)=O)c1ccccc1", "inhibition": "< 10"},
      {"smiles": "N=C(N)NCCC[C@H](NS(=O)(=O)C1CCCCC1)C(=O)N[C@@H](CCCCN)C(=O)N[C@@H](C(N)=O)c1ccccc1", "inhibition": "< 10"},
      {"smiles": "CN([C@@H](CCCNC(=N)N)C(=O)N[C@@H](CCCCN)C(=O)N[C@H](C(N)=O)c1ccccc1)S(=O)(=O)c1ccccc1", "inhibition": "< 10"},
      {"smiles": "CC(C)c1cc(C(C)C)c(S(=O)(=O)N[C@@H](CCCNC(=N)N)C(=O)N[C@@H](CCCCN)C(=O)N[C@@H](C(N)=O)c2ccccc2)c(C(C)C)c1", "inhibition": "< 10"},
      {"smiles": "N=C(N)Nc1ccc(C[C@H](NS(=O)(=O)c2ccccc2)C(=O)N[C@@H](CCCCN)C(=O)N[C@@H](C(N)=O)c2ccccc2)cc1", "inhibition": "< 10"}
    ]}
  ]
}
